Data from patent US10045987B2, “Imidazoyl anilide derivatives and methods of use” (Codexis, Inc., priority 2014, dated 2018).

How the values were obtained:
[1] = system: K562 lymphoblast cell line; test: K562 cytotoxicity assay at RBC, Cell Titer-Glo 2.0, 72 hours; type: cell-based; conditions: class relative to nilotinib
Description: In this Example, experiments conducted at RBC to assess the cytotoxicity of nilotinib and compounds 14, 17, 19, 21, and 22 (i.e., test compounds) are described. All of the test compounds were kept between 4° C. to 8° C. in solid form or as solution in DMSO.
The cell line K562 was obtained from the ATCC. Test compounds were dissolved in DMSO (1 mM stock). Cell Titer-Glo® 2.0 Luminescent cell viability assay reagent was obtained from Promega. K562 lymphoblast cell line was cultured in Iscove's Modified Dulbecco's medium supplemented with 10% FBS. 100 μg/ml penicillin and 100 μg/ml streptomycin were added to all culture media. Cultures were maintained at 37° C. in a humidified atmosphere of 5% CO2 and 95% air. Test compounds in DMSO were added in a source plate. 25 nL of test compounds was delivered from the source plate to each well of the 384-well cell culture plates by Echo 550. 25 μl of culture medium containing 1000 cells for each cell line was added to the wells of the cell culture plates. Cells were incubated with test compounds at 37° C., 5% CO2 for 72 hours. 25 μl of Cell Titer Glo 2.0 reagent was added to each well. The contents were mixed on an orbital shaker for 2 minutes and incubated at room temperature for 10 minutes to stabilize luminescent signal. Luminescence was recorded by Envision 2104 Multilabel Reader (PerkinElmer). The number of viable cells in culture was determined based on quantization of the ATP present in each culture well. The IC50 values were calculated and the IC50 curves were plotted using the GraphPad Prism 4 program based on a sigmoidal dose-response equation.

[2] = system: K-562 cells; test: K-562 cytotoxicity assay, CellTiter 96 Aqueous One, 72 hours; conditions: for K-562 IC50: 72 hours, CellTiter 96, class relative to nilotinib
[3] = molecular target: hERG potassium channels (Homo sapiens, UniProt Q12809)
Description: CHO cells stably expressing hERG potassium channels obtained from Aviva BioSciences were used for this test.
Visual check for precipitation was conducted before testing.
The hERG QPatchHTX assay was conducted at room temperature. The whole-cell protocols, voltage protocols and application protocols were established with QPatch Assay Software 5.0 (Sophion).

[4] = molecular target: T1, cSRC (Homo sapiens, UniProt P12931); test: cSRC kinase assay at Merck-Milliore (standard protocol); type: biochemical
T1 construct: purchased Merck-Milliore (contract assay service)
Description: (§1) The assays were performed at Merck-Milliore, using their standard assay protocols

[5] = molecular target: PDGFRα[h] (Homo sapiens, UniProt P16234); test: biochemical
Description: as §1

[6] = molecular target: T2, Flt1[h] (Homo sapiens, UniProt P17948); test: Flt1 kinase assay at Merck-Milliore (standard protocol); type: biochemical
T2 construct: purchased Merck-Milliore (contract assay service)
Description: as §1

[7] = molecular target: T3, cKit[h] (Homo sapiens, UniProt P10721); test: cKit kinase assay at Merck-Milliore (standard protocol); type: biochemical
T3 construct: purchased Merck-Milliore (contract assay service)
Description: as §1

Structure (SMILES) | K-562 IC50 (RBC) [1] | K-562 IC50 [2] | hERG inhibition compared with Nilotinib [3] | further results
Cc1cn(-c2cc(NC(=O)c3ccc(C)c(Nc4nccc(-c5cccnc5)n4)c3)cc(C(F)(F)F)c2)cn1 [Compound 1, 4-methyl-N-[3-(4-methyl-1H-imidazol-1-yl)-5-(trifluoromethyl)phenyl]-3-[(4-pyridin-3-ylpyrimidin-2-yl)amino]benzamide, reference compound] | + | + | – | –
Cc1ccc(C(=O)Nc2cc(-n3cnc(CO)c3)cc(C(F)(F)F)c2)cc1Nc1nccc(-c2cccnc2)n1 [Compound 2, N-[3-[4-(hydroxymethyl)imidazol-1-yl]-5-(trifluoromethyl)phenyl]-4-methyl-3-[[4-(3-pyridyl)pyrimidin-2-yl]amino]benzamide] | – | ++ (IC50 more than 25% smaller than IC50 for nilotinib) | less inhibiting to hERG than Nilotinib | hERG IC50 (μM) [3]: +; IC50 [4]: 1300 nM; IC50 [5]: 1900 nM; IC50 [6]: 1100 nM; IC50 [7]: 1300 nM
Cc1ccc(C(=O)Nc2cc(-n3cnc(COC(=O)C4CC4)c3)cc(C(F)(F)F)c2)cc1Nc1nccc(-c2cccnc2)n1 [Compound 11] | – | ++ (IC50 more than 25% smaller than IC50 for nilotinib) | less inhibiting to hERG than Nilotinib | –
Cc1ccc(C(=O)Nc2cc(-n3cnc(COC(N)=O)c3)cc(C(F)(F)F)c2)cc1Nc1nccc(-c2cccnc2)n1 [Compound 12] | – | +++ (IC50 more than 75% great than IC50 for nilotinib) | less inhibiting to hERG than Nilotinib | IC50 ([2]; Homo sapiens, K562, 72 h, read-out: K-562 IC50): < 1 nM
Cc1ccc(C(=O)Nc2cc(-n3cnc(CNCC(=O)O)c3)cc(C(F)(F)F)c2)cc1Nc1nccc(-c2cccnc2)n1 [Compound 21] | − (IC50 more than 25% great than IC50 for nilotinib) | – | – | –
COC(=O)CNCc1cn(-c2cc(NC(=O)c3ccc(C)c(Nc4nccc(-c5cccnc5)n4)c3)cc(C(F)(F)F)c2)cn1 [Compound 22] | − (IC50 more than 25% great than IC50 for nilotinib) | – | – | –
